Toxic doses and inconclusive results are not listed. No stated cut-off is given here; in the data, active means T/C of 150% or more; inactive means T/C below 125%.
System: L1210 leukemia ip in BDF1 mice, survival T/C
Test: NCI In Vivo Anticancer Drug Screen. Data for tumor model L1210 Leukemia (intraperitoneal) in B6D2F1 (BDF1) mice
Settings: endpoint: mean survival time, higher = longer survival
Summary of the method: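 Survival endpoint. Drug-treated group vs vehicle group, expressed as T divided by C. Tumor passaged by transplantation.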

[1] = dose: 100.0 mg/kg/injection, schedule: Q01DX009 (ip), vehicle: Klucel (hydroxypropylcellulose) (HPC)
[2] = dose: 200.0 mg/kg/injection, schedule: Q01DX009 (ip), vehicle: Klucel (hydroxypropylcellulose) (HPC)
[3] = dose: 400.0 mg/kg/injection, schedule: Q01DX009 (ip), vehicle: Klucel (hydroxypropylcellulose) (HPC)
[4] = dose: 100.0 mg/kg/injection, schedule: Q04DX003 (ip), vehicle: Klucel (hydroxypropylcellulose) (HPC)
[5] = dose: 200.0 mg/kg/injection, schedule: Q04DX003 (ip), vehicle: Klucel (hydroxypropylcellulose) (HPC)
[6] = dose: 400.0 mg/kg/injection, schedule: Q04DX003 (ip), vehicle: Klucel (hydroxypropylcellulose) (HPC)
[7] = dose: 50.0 mg/kg/injection, schedule: Q01DX009 (ip), vehicle: saline with Tween-80
[8] = dose: 100.0 mg/kg/injection, schedule: Q04DX003 (ip), vehicle: saline with Tween-80
[9] = dose: 200.0 mg/kg/injection, schedule: Q04DX003 (ip), vehicle: saline with Tween-80
[10] = dose: 400.0 mg/kg/injection, schedule: Q04DX003 (ip), vehicle: saline with Tween-80
[11] = dose: 50.0 mg/kg/injection, schedule: Q01DX001 (ip), vehicle: saline
[12] = dose: 100.0 mg/kg/injection, schedule: Q01DX001 (ip), vehicle: saline
[13] = dose: 200.0 mg/kg/injection, schedule: Q01DX001 (ip), vehicle: saline
[14] = dose: 400.0 mg/kg/injection, schedule: Q01DX001 (ip), vehicle: saline

Measured: T/C

Cn1nc(C(=O)O)c2c(N)ncnc21
inactive: dose: 50.0 mg/kg/injection, schedule: Q04DX002 (ip), vehicle: saline 103 % of control | dose: 100.0 mg/kg/injection, schedule: Q04DX002 (ip), vehicle: saline 95 % of control | dose: 200.0 mg/kg/injection, schedule: Q04DX002 (ip), vehicle: saline 98 % of control

CCCCCCCCCCCCCCCCCSc1ccc2ccccc2c1
inactive: [1] 97 % of control | [2] 100 % of control | [3] 95 % of control

Oc1cc(O)c(CN2CCOCC2)c(O)c1CN1CCOCC1
inactive: dose: 100.0 mg/kg/injection, schedule: Q01DX001 (ip), vehicle: other 98 % of control | dose: 200.0 mg/kg/injection, schedule: Q01DX001 (ip), vehicle: other 100 % of control | dose: 400.0 mg/kg/injection, schedule: Q01DX001 (ip), vehicle: other 95 % of control

OC1(C#CC2(O)c3ccccc3-c3ccccc32)c2ccccc2-c2ccccc21
inactive: [1] 93 % of control | [4] 106 % of control | [2] 97 % of control | [5] 106 % of control | [3] 93 % of control | [6] 100 % of control

CC(=O)C1=CC(=O)NC(=O)C1C(=O)CC(C)C (configuration not stated)
inactive: dose: 0.78 mg/kg/injection, schedule: Q01DX009 (ip), vehicle: Klucel (hydroxypropylcellulose) (HPC) 97 % of control | dose: 1.56 mg/kg/injection, schedule: Q01DX009 (ip), vehicle: Klucel (hydroxypropylcellulose) (HPC) 97 % of control | dose: 3.12 mg/kg/injection, schedule: Q01DX009 (ip), vehicle: Klucel (hydroxypropylcellulose) (HPC) 93 % of control | dose: 6.25 mg/kg/injection, schedule: Q01DX009 (ip), vehicle: Klucel (hydroxypropylcellulose) (HPC) 98 % of control | dose: 12.5 mg/kg/injection, schedule: Q01DX009 (ip), vehicle: Klucel (hydroxypropylcellulose) (HPC) 98 % of control | dose: 12.5 mg/kg/injection, schedule: Q04DX003 (ip), vehicle: Klucel (hydroxypropylcellulose) (HPC) 98 % of control | dose: 25.0 mg/kg/injection, schedule: Q04DX003 (ip), vehicle: Klucel (hydroxypropylcellulose) (HPC) 96 % of control

COC(=O)Nc1nc2ccccc2[nH]1
inactive: [7] 97 % of control | dose: 100.0 mg/kg/injection, schedule: Q01DX001 (ip), vehicle: carboxymethylcellulose (CMC) 94 % of control | dose: 100.0 mg/kg/injection, schedule: Q01DX009 (ip), vehicle: saline with Tween-80 101 % of control | [8] 94 % of control | dose: 200.0 mg/kg/injection, schedule: Q01DX001 (ip), vehicle: carboxymethylcellulose (CMC) 97 % of control | dose: 200.0 mg/kg/injection, schedule: Q01DX009 (ip), vehicle: saline with Tween-80 97 % of control | [9] 103 % of control | dose: 400.0 mg/kg/injection, schedule: Q01DX001 (ip), vehicle: carboxymethylcellulose (CMC) 100 % of control | dose: 400.0 mg/kg/injection, schedule: Q01DX009 (ip), vehicle: saline with Tween-80 116 % of control | [10] 105 % of control

CN(C)CCOc1cccc(OCCN(C)C)n1
inactive: dose: 12.5 mg/kg/injection, schedule: Q01DX009 (ip), vehicle: saline with Tween-80 104 % of control | dose: 25.0 mg/kg/injection, schedule: Q01DX009 (ip), vehicle: saline with Tween-80 103 % of control | dose: 25.0 mg/kg/injection, schedule: Q04DX003 (ip), vehicle: saline with Tween-80 96 % of control | [7] 103 % of control | dose: 50.0 mg/kg/injection, schedule: Q04DX003 (ip), vehicle: saline with Tween-80 96 % of control | [8] 100 % of control

CC(C)=CC/C(C)=C/C=N\Nc1ccc([N+](=O)[O-])cc1[N+](=O)[O-]
inactive: [8] 98 % of control | [9] 95 % of control | [10] 93 % of control

Cc1cc(/C=N/N=c2\[nH][nH]/c(=N\N=C\c3cc(C)n(-c4ccccc4)c3C)c3ccccc23)c(C)n1-c1ccccc1
inactive: [11] 97 % of control | [12] 97 % of control | [13] 92 % of control | [14] 103 % of control

C=CCOC(=O)C1c2ccccc2Cc2ccccc21
inactive: [8] 97 % of control | [9] 97 % of control | [10] 95 % of control

OCC1OC(n2cnc3nccnc32)C(O)C1O (configuration not stated)
inactive: dose: 100.0 mg/kg/injection, schedule: Q01DX005 (ip), vehicle: saline 98 % of control | dose: 200.0 mg/kg/injection, schedule: Q01DX005 (ip), vehicle: saline 110 % of control

CCCNC(=O)Nc1ccc(S(N)(=O)=O)cc1
inactive: dose: 100.0 mg/kg/injection, schedule: Q04DX002 (ip), vehicle: Klucel (hydroxypropylcellulose) (HPC) 97 % of control | dose: 200.0 mg/kg/injection, schedule: Q04DX002 (ip), vehicle: Klucel (hydroxypropylcellulose) (HPC) 97 % of control | dose: 400.0 mg/kg/injection, schedule: Q04DX002 (ip), vehicle: Klucel (hydroxypropylcellulose) (HPC) 87 % of control

CCSC1OC(C(COC(C)=O)OC(C)=O)C(OC(C)=O)C1NC(C)=O (configuration not stated)
inactive: [11] 103 % of control | [12] 110 % of control | [13] 97 % of control | [14] 100 % of control

NC(N)=Nc1ccc(Cc2ccc(N=C(N)N)cc2)cc1
inactive: dose: 12.5 mg/kg/injection, schedule: Q01DX Z (oral), vehicle: saline 105 % of control | dose: 25.0 mg/kg/injection, schedule: Q01DX Z (oral), vehicle: saline 103 % of control | dose: 50.0 mg/kg/injection, schedule: Q01DX Z (oral), vehicle: saline 94 % of control | dose: 100.0 mg/kg/injection, schedule: Q01DX Z (oral), vehicle: saline 93 % of control

c1ccc(-c2nc(-c3nccc4ccccc34)oc2-c2ccccc2)cc1
inactive: [12] 97 % of control | [13] 88 % of control | [14] 93 % of control

COC(=O)c1cc(S(=O)(=O)c2cc(C(=O)OC)c(O)cc2OC)c(OC)cc1O
inactive: dose: 100.0 mg/kg/injection, schedule: Q04DX002 (ip), vehicle: carboxymethylcellulose (CMC) 95 % of control | dose: 200.0 mg/kg/injection, schedule: Q04DX002 (ip), vehicle: carboxymethylcellulose (CMC) 95 % of control | dose: 400.0 mg/kg/injection, schedule: Q04DX002 (ip), vehicle: carboxymethylcellulose (CMC) 98 % of control

COc1ccc(CNC(=O)NCCCl)cc1OC
inactive: [1] 102 % of control | [4] 115 % of control | [2] 103 % of control | [5] 113 % of control | [6] 101 % of control

CCCc1c(C)[nH]c2ccccc12
inactive: [1] 104 % of control | [4] 105 % of control | [2] 92 % of control | [5] 104 % of control | [3] 95 % of control | [6] 105 % of control

CC1CC=C(C2CC(C)CC(N(C)C)C2=N)CC1 (configuration not stated)
inactive: dose: 100.0 mg/kg/injection, schedule: Q01DX009 (sc), vehicle: olive oil, sesame oil, peanut oil 101 % of control | dose: 100.0 mg/kg/injection, schedule: Q04DX003 (sc), vehicle: olive oil, sesame oil, peanut oil 108 % of control | dose: 200.0 mg/kg/injection, schedule: Q01DX009 (sc), vehicle: olive oil, sesame oil, peanut oil 92 % of control | dose: 200.0 mg/kg/injection, schedule: Q04DX003 (sc), vehicle: olive oil, sesame oil, peanut oil 103 % of control | dose: 400.0 mg/kg/injection, schedule: Q04DX003 (sc), vehicle: olive oil, sesame oil, peanut oil 106 % of control

O=C(O)/C=C\C(=O)Nc1ccc(F)cc1
inactive: [8] 98 % of control | [9] 101 % of control | [10] 101 % of control

O=C1CNC(=O)CN1
inactive: dose: 75.0 mg/kg/injection, schedule: Q01DX009 (ip), vehicle: saline 94 % of control | dose: 100.0 mg/kg/injection, schedule: Q04DX003 (ip), vehicle: saline 103 % of control | dose: 150.0 mg/kg/injection, schedule: Q01DX009 (ip), vehicle: saline 92 % of control | dose: 200.0 mg/kg/injection, schedule: Q04DX003 (ip), vehicle: saline 106 % of control | dose: 300.0 mg/kg/injection, schedule: Q01DX009 (ip), vehicle: saline 94 % of control | dose: 400.0 mg/kg/injection, schedule: Q04DX003 (ip), vehicle: saline 100 % of control

O=C(COc1ccc(Cl)c(Cl)c1)N(Cc1ccccc1)Cc1ccc[n+](Cc2ccc(S(=O)(=O)F)cc2)c1
inactive: [8] 102 % of control | [9] 96 % of control

CC(=O)C1C(N2CC2)CC2C3CCC4=CC(=O)CCC4(C)C3CCC21C (configuration not stated)
inactive: dose: 50.0 mg/kg/injection, schedule: Q01DX001 (sc), vehicle: steriod suspending solution 101 % of control | dose: 100.0 mg/kg/injection, schedule: Q01DX001 (sc), vehicle: steriod suspending solution 104 % of control | dose: 200.0 mg/kg/injection, schedule: Q01DX001 (sc), vehicle: steriod suspending solution 101 % of control
